Reference: article PMC5218480 (PLoS ONE, 2017)

System: MV-4-11 cells
Assay: Gene expression microarray analysis (Affymetrix PrimeView) and GSEA
Type: cell-based, human
Parameters: RFU PODN (11730768_x_at) / Fold change /veh PODN (11730768_x_at) / RFU LINC00158 (11744669_a_at) / Fold change /veh LINC00158 (11744669_a_at) / RFU DUSP10 (11751237_a_at) / Fold change /veh DUSP10 (11751237_a_at) / RFU ID3 (11757404_x_at) / Fold change /veh ID3 (11757404_x_at) / RFU PLEKHG5 (11737974_s_at) / Fold change /veh PLEKHG5 (11737974_s_at) / RFU LRRC4B (11730491_at) / Fold change /veh LRRC4B (11730491_at) / RFU GIMAP4 (11747438_a_at) / Fold change /veh GIMAP4 (11747438_a_at) / RFU KRT8 (11758183_x_at) / Fold change /veh KRT8 (11758183_x_at) / RFU CNN1 (11734310_a_at) / Fold change /veh CNN1 (11734310_a_at) / RFU VPS37D (11726825_at) / Fold change /veh VPS37D (11726825_at) / RFU C10orf10 (11716522_x_at) / Fold change /veh C10orf10 (11716522_x_at) / RFU KIR2DL2 /// KIR2DL4 /// KIR2DL5A /// KIR2DL5B /// KIR2DS1 /// KIR2DS2 /// KIR2DS3 /// KIR2DS4 /// KIR3DL3 /// KIR3DL3 /// KIR3DS1 (11738374_at) / Fold change /veh KIR2DL2 /// KIR2DL4 /// KIR2DL5A /// KIR2DL5B /// KIR2DS1 /// KIR2DS2 /// KIR2DS3 /// KIR2DS4 /// KIR3DL3 /// KIR3DL3 /// KIR3DS1 (11738374_at) / RFU C1QL1 (11718748_at) / Fold change /veh C1QL1 (11718748_at) / RFU TMPRSS4 (11747572_a_at) / Fold change /veh TMPRSS4 (11747572_a_at) / RFU HAMP (11756126_x_at) / Fold change /veh HAMP (11756126_x_at) / RFU RNFT2 (11725882_a_at) / Fold change /veh RNFT2 (11725882_a_at) / RFU NR4A2 (11747474_a_at) / Fold change /veh NR4A2 (11747474_a_at) / RFU ABCC12 (11746883_a_at) / Fold change /veh ABCC12 (11746883_a_at) / RFU TMEM136 (11760407_x_at) / Fold change /veh TMEM136 (11760407_x_at) / RFU CLDN22 /// WWC2 (11732394_at) / Fold change /veh CLDN22 /// WWC2 (11732394_at) / RFU HLA-DPB1 (11760878_x_at) / Fold change /veh HLA-DPB1 (11760878_x_at) / RFU SPINT1 (11716480_a_at) / Fold change /veh SPINT1 (11716480_a_at) / RFU GAP43 (11754022_s_at) / Fold change /veh GAP43 (11754022_s_at) / RFU A4GNT (11735810_at) / Fold change /veh A4GNT (11735810_at) / RFU PRB3 (11715151_x_at) / Fold change /veh PRB3 (11715151_x_at) / RFU TUBB4B (11761932_at) / Fold change /veh TUBB4B (11761932_at) / RFU CAPN14 (11732068_a_at) / Fold change /veh CAPN14 (11732068_a_at) / RFU TMCC2 (11721928_a_at) / Fold change /veh TMCC2 (11721928_a_at) / RFU IRGQ (11745062_a_at) / Fold change /veh IRGQ (11745062_a_at) / RFU FAM174B (11720279_a_at) / Fold change /veh FAM174B (11720279_a_at) / RFU TMPRSS4 (11748680_a_at) / Fold change /veh TMPRSS4 (11748680_a_at) / RFU FAM212B (11763350_a_at) / Fold change /veh FAM212B (11763350_a_at) / RFU PLEKHG5 (11743358_a_at) / Fold change /veh PLEKHG5 (11743358_a_at) / RFU ZSCAN30 (11745921_a_at) / Fold change /veh ZSCAN30 (11745921_a_at) / RFU CMKLR1 (11741424_a_at) / Fold change /veh CMKLR1 (11741424_a_at) / RFU LOC101060620 /// MAPK8IP1 (11723275_at) / Fold change /veh LOC101060620 /// MAPK8IP1 (11723275_at) / RFU SPTSSB (11747773_x_at) / Fold change /veh SPTSSB (11747773_x_at) / RFU PRSS12 (11739890_at) / Fold change /veh PRSS12 (11739890_at) / RFU BIN1 (11741810_x_at) / Fold change /veh BIN1 (11741810_x_at) / RFU WNT11 (11732464_a_at) / Fold change /veh WNT11 (11732464_a_at) / RFU C10orf10 (11716521_a_at) / Fold change /veh C10orf10 (11716521_a_at) / RFU C5orf56 (11738089_at) / Fold change /veh C5orf56 (11738089_at) / RFU CYB561 (11721691_x_at) / Fold change /veh CYB561 (11721691_x_at) / RFU ANKRD19P (11752326_a_at) / Fold change /veh ANKRD19P (11752326_a_at) / RFU OR2T12 /// OR2T33 /// OR2T8 (11738714_s_at) / Fold change /veh OR2T12 /// OR2T33 /// OR2T8 (11738714_s_at) / RFU VCAN (11748164_a_at) / Fold change /veh VCAN (11748164_a_at) / RFU JSRP1 (11732532_at) / Fold change /veh JSRP1 (11732532_at) / RFU KRTAP10-11 (11738290_x_at) / Fold change /veh KRTAP10-11 (11738290_x_at) / RFU MYO3A (11730013_a_at) / Fold change /veh MYO3A (11730013_a_at) / RFU EBF3 (11725865_a_at) / Fold change /veh EBF3 (11725865_a_at) / RFU CAMK2N1 (11719241_x_at) / Fold change /veh CAMK2N1 (11719241_x_at) / RFU C5orf56 (11738088_a_at) / Fold change /veh C5orf56 (11738088_a_at) / RFU OLFML3 (11715873_a_at) / Fold change /veh OLFML3 (11715873_a_at) / RFU LOC100653217 /// NTM (11731650_a_at) / Fold change /veh LOC100653217 /// NTM (11731650_a_at) / RFU MAPK11 (11762145_a_at) / Fold change /veh MAPK11 (11762145_a_at) / RFU FIZ1 (11724087_x_at) / Fold change /veh FIZ1 (11724087_x_at) / RFU OASL (11726364_x_at) / Fold change /veh OASL (11726364_x_at) / RFU SOX15 (11748057_x_at) / Fold change /veh SOX15 (11748057_x_at) / RFU CD79A (11719716_a_at) / Fold change /veh CD79A (11719716_a_at) / RFU HIST1H1D (11736915_at) / Fold change /veh HIST1H1D (11736915_at) / RFU CASKIN2 (11723855_a_at) / Fold change /veh CASKIN2 (11723855_a_at) / RFU LOC730098 (11760151_x_at) / Fold change /veh LOC730098 (11760151_x_at) / RFU OR4N2 (11742367_at) / Fold change /veh OR4N2 (11742367_at) / RFU PRRT2 (11749266_a_at) / Fold change /veh PRRT2 (11749266_a_at) / RFU SNX32 (11753110_a_at) / Fold change /veh SNX32 (11753110_a_at) / RFU CDHR5 (11726645_a_at) / Fold change /veh CDHR5 (11726645_a_at) / RFU RCAN1 (11760418_a_at) / Fold change /veh RCAN1 (11760418_a_at) / RFU FAM167A (11723789_a_at) / Fold change /veh FAM167A (11723789_a_at) / RFU FAM26E (11764081_at) / Fold change /veh FAM26E (11764081_at) / RFU ISYNA1 (11749810_s_at) / Fold change /veh ISYNA1 (11749810_s_at) / RFU ACY1 (11761880_at) / Fold change /veh ACY1 (11761880_at) / RFU 11764098_at / Fold change /veh 11764098_at / RFU SAMD14 (11745864_x_at) / Fold change /veh SAMD14 (11745864_x_at) / RFU NPB (11741838_a_at) / Fold change /veh NPB (11741838_a_at) / RFU TMPRSS6 (11731388_a_at) / Fold change /veh TMPRSS6 (11731388_a_at) / RFU KRTAP10-2 (11738614_at) / Fold change /veh KRTAP10-2 (11738614_at) / RFU ARHGAP8 /// PRR5-ARHGAP8 (11727945_x_at) / Fold change /veh ARHGAP8 /// PRR5-ARHGAP8 (11727945_x_at) / RFU KRTAP5-7 /// NADSYN1 (11734609_at) / Fold change /veh KRTAP5-7 /// NADSYN1 (11734609_at) / RFU RASL12 (11751679_a_at) / Fold change /veh RASL12 (11751679_a_at) / RFU CDKN2B (11736163_a_at) / Fold change /veh CDKN2B (11736163_a_at) / RFU PRF1 (11729649_at) / Fold change /veh PRF1 (11729649_at) / RFU, ZNF638 /// ZNF638-IT1 / Fold change vs veh, ZNF638 /// ZNF638-IT1 / RFU, PANK3 / Fold change vs veh, PANK3 / RFU, SH3YL1 / Fold change vs veh, SH3YL1 / RFU, ZEB2 / Fold change vs veh, ZEB2 / RFU, NRIP1 / Fold change vs veh, NRIP1 / RFU, PTTG1IP / Fold change vs veh, PTTG1IP / RFU, CAPN2 / Fold change vs veh, CAPN2 / RFU, MED14 / Fold change vs veh, MED14 / RFU, SNORA58 / Fold change vs veh, SNORA58 / RFU, C1orf63 / Fold change vs veh, C1orf63 / RFU, LRRFIP1 / Fold change vs veh, LRRFIP1 / RFU, NDUFAF7 / Fold change vs veh, NDUFAF7 / RFU, SLC12A2 / Fold change vs veh, SLC12A2 / RFU, IBTK / Fold change vs veh, IBTK / RFU, ESF1 / Fold change vs veh, ESF1 / Fold change vs veh, TMEM50B / RFU, TAOK1 / Fold change vs veh, TAOK1 / RFU, ACBD3 / Fold change vs veh, ACBD3 / RFU, TMA16 / Fold change vs veh, TMA16 / RFU, RWDD3 / Fold change vs veh, RWDD3 / RFU, BCAT1 / Fold change vs veh, BCAT1 / RFU, EDEM3 / Fold change vs veh, EDEM3 / RFU, TMEM33 / Fold change vs veh, TMEM33 / RFU, WDR75 / Fold change vs veh, WDR75 / RFU, AHCTF1 / Fold change vs veh, AHCTF1 / RFU, TFRC / Fold change vs veh, TFRC / RFU, ZDHHC17 / Fold change vs veh, ZDHHC17 / RFU, NOM1 / Fold change vs veh, NOM1 / RFU, ARL8B / Fold change vs veh, ARL8B / RFU, ZBTB11 / Fold change vs veh, ZBTB11 / RFU, TAMM41 / Fold change vs veh, TAMM41 / RFU, KIAA1704 /// LOC100996395 / Fold change vs veh, KIAA1704 /// LOC100996395 / RFU, ING1 / Fold change vs veh, ING1 / RFU, TRMT61B / Fold change vs veh, TRMT61B / RFU, FUBP3 / Fold change vs veh, FUBP3 / RFU, TP53 / Fold change vs veh, TP53 / RFU, TNKS2 / Fold change vs veh, TNKS2 / RFU, ZFP14 / Fold change vs veh, ZFP14 / RFU, ACTR2 / Fold change vs veh, ACTR2 / RFU, PPP3R1 / Fold change vs veh, PPP3R1 / RFU, PIK3R1 / Fold change vs veh, PIK3R1 / RFU, HNRNPA1 / Fold change vs veh, HNRNPA1 / RFU, RNF170 / Fold change vs veh, RNF170 / RFU, ZNF28 / Fold change vs veh, ZNF28 / RFU, RNGTT / Fold change vs veh, RNGTT / RFU, OGT / Fold change vs veh, OGT / RFU, BRD1 / Fold change vs veh, BRD1 / RFU, MARS / Fold change vs veh, MARS / RFU, ZNF655 / Fold change vs veh, ZNF655 / RFU, FAHD1 / Fold change vs veh, FAHD1 / RFU, BDP1 / Fold change vs veh, BDP1 / RFU, LRRCC1 / Fold change vs veh, LRRCC1 / RFU, ARID1A / Fold change vs veh, ARID1A / RFU, ZNF146 / Fold change vs veh, ZNF146 / RFU, ZNF330 / Fold change vs veh, ZNF330 / RFU, GPN3 / Fold change vs veh, GPN3 / RFU, C9orf123 / Fold change vs veh, C9orf123 / RFU, N4BP2L2 / Fold change vs veh, N4BP2L2 / RFU, ARFIP1 / Fold change vs veh, ARFIP1 / RFU, FAM179B / Fold change vs veh, FAM179B / RFU, BCL10 / Fold change vs veh, BCL10 / RFU, UHRF1BP1L / Fold change vs veh, UHRF1BP1L / RFU, BET1 / Fold change vs veh, BET1 / RFU, CNOT2 / Fold change vs veh, CNOT2 / RFU, ZNF268 / Fold change vs veh, ZNF268 / Fold change vs veh, ZNF507 / RFU, DGCR2 / Fold change vs veh, DGCR2 / RFU, WDSUB1 / Fold change vs veh, WDSUB1 / Fold change vs veh, HSP90B1 /// MIR3652 / RFU, ADSS / Fold change vs veh, ADSS / RFU, GK / Fold change vs veh, GK / RFU, ZNF148 / Fold change vs veh, ZNF148 / RFU, TAF9 / Fold change vs veh, TAF9 / RFU, SLC1A5 / Fold change vs veh, SLC1A5 / RFU, SLMO2 / Fold change vs veh, SLMO2 / RFU, ABCC4 / Fold change vs veh, ABCC4 / RFU, LOC101060439 /// RAP1B / Fold change vs veh, LOC101060439 /// RAP1B / RFU, RFX7 / Fold change vs veh, RFX7 / RFU, GTPBP10 / Fold change vs veh, GTPBP10 / RFU, CNEP1R1 / Fold change vs veh, CNEP1R1 / RFU, BIVM-ERCC5 /// ERCC5 / Fold change vs veh, BIVM-ERCC5 /// ERCC5 / RFU, ILF3 / Fold change vs veh, ILF3 / RFU 11762660_at / Fold change /veh 11762660_at / RFU VCAN (11757783_s_at) / Fold change /veh VCAN (11757783_s_at) / RFU DDX43 (11728927_at) / Fold change /veh DDX43 (11728927_at) / RFU KRT8 (11758188_x_at) / Fold change /veh KRT8 (11758188_x_at) / RFU NKD1 (11759106_at) / Fold change /veh NKD1 (11759106_at) / RFU SRD5A1 (11742802_a_at) / Fold change /veh SRD5A1 (11742802_a_at) / RFU TPSAB1 /// TPSB2 (11721975_s_at) / Fold change /veh TPSAB1 /// TPSB2 (11721975_s_at) / RFU GSTM3 (11746129_a_at) / Fold change /veh GSTM3 (11746129_a_at) / RFU IL23R (11737362_x_at) / Fold change /veh IL23R (11737362_x_at) / RFU TMEM51 (11727254_a_at) / Fold change /veh TMEM51 (11727254_a_at) / RFU PIWIL2 (11732686_x_at) / Fold change /veh PIWIL2 (11732686_x_at) / RFU ORM1 (11744905_x_at) / Fold change /veh ORM1 (11744905_x_at) / RFU CCDC152 (11743942_at) / Fold change /veh CCDC152 (11743942_at) / RFU ECM1 (11717891_a_at) / Fold change /veh ECM1 (11717891_a_at) / RFU IL23R (11748794_a_at) / Fold change /veh IL23R (11748794_a_at) / RFU TNFAIP8L3 (11732012_x_at) / Fold change /veh TNFAIP8L3 (11732012_x_at) / RFU MBOAT4 (11741988_at) / Fold change /veh MBOAT4 (11741988_at) / RFU 11764193_at / Fold change /veh 11764193_at / RFU TMEM53 (11763286_at) / Fold change /veh TMEM53 (11763286_at) / RFU MAGEB2 (11727129_at) / Fold change /veh MAGEB2 (11727129_at) / RFU TMEM200A (11744735_a_at) / Fold change /veh TMEM200A (11744735_a_at) / RFU CCDC152 (11751479_a_at) / Fold change /veh CCDC152 (11751479_a_at) / RFU FAM211A (11726209_a_at) / Fold change /veh FAM211A (11726209_a_at) / RFU RGS16 (11746705_a_at) / Fold change /veh RGS16 (11746705_a_at) / RFU VCAN (11755009_s_at) / Fold change /veh VCAN (11755009_s_at) / RFU RHOB (11743442_s_at) / Fold change /veh RHOB (11743442_s_at) / RFU RGS16 (11720943_a_at) / Fold change /veh RGS16 (11720943_a_at) / RFU RGS16 (11720944_at) / Fold change /veh RGS16 (11720944_at) / RFU, VPS4B / Fold change vs veh, VPS4B / RFU, CREB1 / Fold change vs veh, CREB1 / RFU, DNAJC13 / Fold change vs veh, DNAJC13 / RFU, GNAQ / Fold change vs veh, GNAQ / RFU, CDK5R1 / Fold change vs veh, CDK5R1 / RFU, ZRANB3 / Fold change vs veh, ZRANB3 / RFU, CUL4A / Fold change vs veh, CUL4A / RFU, CCNY / Fold change vs veh, CCNY / RFU, UFL1 / Fold change vs veh, UFL1 / RFU, COG3 / Fold change vs veh, COG3 / RFU, DIAPH2 / Fold change vs veh, DIAPH2 / RFU, SKA2 / Fold change vs veh, SKA2 / RFU, AFF3 / Fold change vs veh, AFF3 / RFU, LMF1 / Fold change vs veh, LMF1 / RFU, IPO11 / Fold change vs veh, IPO11 / RFU, DFFB / Fold change vs veh, DFFB / RFU, FOXP1 / Fold change vs veh, FOXP1 / RFU, CARD8 / Fold change vs veh, CARD8 / RFU, STRN3 / Fold change vs veh, STRN3 / RFU, ADK / Fold change vs veh, ADK / RFU, RASSF2 / Fold change vs veh, RASSF2 / RFU, WIPF1 / Fold change vs veh, WIPF1 / RFU, LARP1B / Fold change vs veh, LARP1B / RFU, RASA1 / Fold change vs veh, RASA1 / RFU, RB1 / Fold change vs veh, RB1 / RFU, PPFIA1 / Fold change vs veh, PPFIA1 / RFU, MAT2A / Fold change vs veh, MAT2A / RFU, CCT5 / Fold change vs veh, CCT5 / RFU, WDR92 / Fold change vs veh, WDR92 / RFU, CUX1 / Fold change vs veh, CUX1 / RFU, TTC7A / Fold change vs veh, TTC7A / RFU, TMEM135 / Fold change vs veh, TMEM135 / RFU, DEPTOR / Fold change vs veh, DEPTOR / RFU, CPM / Fold change vs veh, CPM / RFU, DNAJB6 / Fold change vs veh, DNAJB6 / RFU, CACNA2D3 / Fold change vs veh, CACNA2D3 / RFU, DTX4 / Fold change vs veh, DTX4 / RFU, TFCP2 / Fold change vs veh, TFCP2 / RFU, GMCL1 /// GMCL1P1 / Fold change vs veh, GMCL1 /// GMCL1P1 / RFU, AEBP2 / Fold change vs veh, AEBP2 / RFU, SNHG1 /// SNORD22 /// SNORD25 /// SNORD26 /// SNORD27 /// SNORD28 /// SNORD29 /// SNORD31 / Fold change vs veh, SNHG1 /// SNORD22 /// SNORD25 /// SNORD26 /// SNORD27 /// SNORD28 /// SNORD29 /// SNORD31 / Fold change (Aza/veh), C12orf56 (ProbeSet 11735607_a_at) / Fold change (ACY-1035/veh), C12orf56 (ProbeSet 11735607_a_at) / Fold change (Aza/veh), FGFR1OP (ProbeSet 11751329_s_at) / Fold change (ACY-1035/veh), FGFR1OP (ProbeSet 11751329_s_at) / Fold change (Aza/veh), VPS36 (ProbeSet 11739960_a_at) / Fold change (ACY-1035/veh), VPS36 (ProbeSet 11739960_a_at) / RFU SYPL1 (11715823_x_at) / Fold change /veh SYPL1 (11715823_x_at) / RFU IGFBP7 (11715501_s_at) / Fold change /veh IGFBP7 (11715501_s_at) / RFU REEP3 (11722064_at) / Fold change /veh REEP3 (11722064_at) / RFU IGLL1 (11728026_x_at) / Fold change /veh IGLL1 (11728026_x_at): dose or concentration left out as unconfirmed
Settings: ProbeSet 11721559_s_at; LIST B

Compound: Nc1ncn([C@@H]2O[C@H](CO)[C@@H](O)[C@H]2O)c(=O)n1 [azacitidine]
- RFU, ZNF638 /// ZNF638-IT1: 347.20 RFU
